Laboratory results published in patent publication US3950354A, “Imidazolylacetic acid amides” (Bayer Aktiengesellschaft, priority 1972, dated 1976).
In brackets after ≈: the same amount, converted by molar mass. Read-outs that look alike come from different tables or passages of the source.

Key:
Penicillium commune = assay: Anti-mycotic spectrum of action in vitro, series dilution test (Penicillium commune); format: cell-based; conditions: read-out: Minimum inhibitory concentration
Method: (§1) Determination of the anti-mycotic spectrum of action in vitro, by the series dilution test
(§2) The nutrient substrates used were Sabouraud's milieu d'epreuve for dermatophytes and moulds, and meat broth-glucose bouillon for blastomycetes and biphase fungi.
(§3) The incubation temperature was 28°C and the incubation time was 24 to 96 hours.

[1] = test system: Trichophyton mentagrophytes; assay: Anti-mycotic spectrum of action in vitro, series dilution test (Trichophyton mentagrophytes); format: cell-based; conditions: read-out: Minimum inhibitory concentration
Method: as §1, §2, §3

Aspergillus niger = assay: Anti-mycotic spectrum of action in vitro, series dilution test (Aspergillus niger); format: cell-based; conditions: * = 90% inhibition of growth, read-out: Minimum inhibitory concentration
Method: as §1, §2, §3

Candida albicans [2] = assay: Anti-mycotic spectrum of action in vitro, series dilution test (Candida albicans); format: cell-based; conditions: read-out: Minimum inhibitory concentration
Method: as §1, §2, §3

Microsporon felineum = assay: Anti-mycotic spectrum of action in vitro, series dilution test (Microsporon felineum); format: cell-based; conditions: read-out: Minimum inhibitory concentration
Method: as §1, §2, §3

Candida albicans [3] = assay: Candidosis of mice; format: in vivo, Mice of type SPF-CF1; conditions: oral, 50, 75, 100 and 150 mg/kg, one hour before and 7 hours after infection; 1 to 2 × 10^6 Candida cells intravenously
Method: Mice of type SPF-CF1 were intravenously infected with 1 to 2 × 10^6 Candida cells which were suspended in physiological sodium chloride solution.
One hour before and 7 hours after infection, the animals were treated orally with 50, 75, 100 and 150 mg of the compounds according to the invention/kg of body weight. Untreated control animals died of the infection, 3 to 6 days after infection.

[4] = n.s. = no serum added, Sabouraud's milieu d'epreuve, 28°C, 24 to 96 hours
[5] = n.s. = no serum added, meat broth-glucose bouillon, 28°C, 24 to 96 hours
[6] = n.s. = no serum added, * = 90% inhibition of growth
[7] = n.s. = no serum added, + = 50% inhibition of growth

Row | Compound | MIC (Penicillium commune; 28°C, 24 to 96 hours) [µg/mL] | MIC [1, 4] [µg/mL] | MIC ([1]; w.s. = with 30% serum added) [µg/mL] | MIC (Candida albicans [2]; [5]) [µg/mL] | MIC (Candida albicans [2]; w.s. = with 30% serum added) [µg/mL] | Action in the case of Candida albicans (survivals on 6th day after infection) (Candida albicans [3]) | further results
1 | O=C(N1CCN(c2ccccc2Cl)CC1)C(c1ccccc1)(c1ccccc1)n1ccnc1 [Example 13, 4-[ω,ω-diphenyl-ω-imidazolyl-(1)-methylcarbonyl]-1-o-chlorophenyl-piperazine] | > 100 | 10 (≈ 21.9 µM) | 40 (≈ 87.5 µM) | > 100 | – | – | MIC (Aspergillus niger; n.s. = no serum added): 1 µg/mL (≈ 2.19 µM); MIC (Aspergillus niger; w.s. = with 30% serum added): 100 µg/mL (≈ 219 µM); MIC (Microsporon felineum; 28°C, 24 to 96 hours): 100 µg/mL (≈ 219 µM)
2 | O=C(Nc1ccc(Cl)cc1Cl)C(c1ccccc1)(c1ccccc1)n1ccnc1 [Example 6, ω,ω-diphenyl-ω-imidazolyl-(1)-acetic acid 2,4-dichloroanilide] | – | – | 8 (≈ 18.9 µM) | – | – | – | MIC (Penicillium commune; * = 90% inhibition of growth): 64 µg/mL (≈ 152 µM); MIC [1, 6]: 1 µg/mL (≈ 2.37 µM); MIC (Aspergillus niger; n.s. = no serum added): 4 µg/mL (≈ 9.47 µM); MIC (Aspergillus niger; w.s. = with 30% serum added): 8 µg/mL (≈ 18.9 µM); MIC (Candida albicans [2]; [6]): 1 µg/mL (≈ 2.37 µM); MIC (Candida albicans [2]; w.s. = with 30% serum added, * = 90% inhibition of growth): 32 µg/mL (≈ 75.8 µM); MIC (Microsporon felineum; * = 90% inhibition of growth): 4 µg/mL (≈ 9.47 µM)
3 | O=C(NC1CCCCC1)C(c1ccccc1)(c1ccccc1)n1ccnc1 [Example 7, ω,ω-diphenyl-ω-imidazolyl-(1)-acetic acid cyclohexylamide] | > 64 | – | > 64 | – | 8 (≈ 22.3 µM) | ++ (60 to 80% survivials on 6th day after infection) | MIC [1, 6]: 32 µg/mL (≈ 89 µM); MIC (Candida albicans [2]; [6]): 4 µg/mL (≈ 11.1 µM)
4 | CCOC(=O)N1CCN(C(=O)C(c2ccccc2)(c2ccccc2)n2ccnc2)CC1 [Example 12, 4-[ω,ω-diphenyl-ω-imidazolyl-(1)-methylcarbonyl]-1-ethoxycarbonyl-piperazine] | > 64 | – | – | – | > 64 | + (50% survivals on 6th day after infection) | MIC [1, 7]: 64 µg/mL; MIC (Candida albicans [2]; [7]): 64 µg/mL
5 | Cc1cc(Cl)ccc1NC(=O)C(c1ccccc1)(c1ccccc1)n1ccnc1 [Example 5, ω,ω-diphenyl-ω-imidazolyl-(1)-acetic acid 2-methyl-4-chloro-anilide] | > 64 | 32 (≈ 79.6 µM) | 32 (≈ 79.6 µM) | – | – | – | MIC (Candida albicans [2]; [7]): 8 µg/mL; MIC (Candida albicans [2]; w.s. = with 30% serum added, + = 50% inhibition of growth): 64 µg/mL
6 | O=C(Nc1cccc(C(F)(F)F)c1)C(c1ccccc1)(c1ccccc1)n1ccnc1 [Example 4, ω,ω-diphenyl-ω-imidazolyl-(1)-acetic acid 3-trifluoromethylanilide] | > 64 | 64 (≈ 152 µM) | 64 (≈ 152 µM) | > 64 | > 64 | – | –
7 | O=C(N1CCS(=O)(=O)CC1)C(c1ccc(Cl)cc1)(c1ccc(Cl)cc1)n1ccnc1 [Example 2, [ω,ω-di(4-chlorophenyl)-ω-imidazolyl-(1)-methylcarbonyl-(4)]-1,4-thiazine dioxide] | > 100 | 100 (≈ 215 µM) | – | > 100 | – | + (50% survivals on 6th day after infection) | –
8 | O=C(N1CCS(=O)(=O)CC1c1ccccc1)C(c1ccc(Cl)cc1)(c1ccc(Cl)cc1)n1ccnc1 (stereo not drawn) [Example 11, 4-[ω,ω-di-(4-chlorophenyl)-ω-imidazolyl-(1)-methylcarbonyl]-3-phenyl-1,4-thiazine dioxide] | > 64 | 32 (≈ 59.2 µM) | 32 (≈ 59.2 µM) | > 64 | > 64 | – | –
